The source of these data is US12178838B2, “Synthetic neuromodulatory peptides” (Lactocore, Inc., priority 2019, dated 2024).

Several values for one entry are separate records, joined by “and”; a condition that tells them apart may be missing. Equal entries are not always repeated. Where two headings read alike, the source gives them in different places. No end group written: not given here.

Test [1] deals with Sprague Dawley rats. Kind of test: Forced swim test in rats, intranasal FQSE. Format: in vivo. The settings on record: FQSE 0.5 mg/kg i.n.; ketamine 10 mg/kg IP. The method, then: The five doses of FQSE (SEQ ID NO:10) (0.01, 0.1, 0.5, 1 and 3 mg/kg, CS, Menlo Park, CA) were prepared fresh for each test day in sterile saline and administered intranasally (i.n.) 30 minutes prior to testing. Fifteen rats per group per peptide dose were tested with the exception that there were twenty rats in the vehicle (0) group. Each dose was administered in a randomized order across rats. Prior to dosing, the rats were lightly anesthetized (till loss of righting reflex) with isoflurane (2.5%, 0.5 L/min oxygen), placed in the recumbent position, then a thin plastic pipette (Fischer Scientific) inserted into the nares and peptide administered at a volume of 15-20 uL per nares. Individuals performing the behavioral tests were blind to drug treatment.
Rats were first allowed to acclimate to the testing room for 30 minutes while in their home cage. The forced swim tests were conducted using Plexiglas cylinders (10 in width, 18 in height) filled with water maintained at approximately 25° C. On day 1, rats were first habituated (15 minutes) to the forced swim apparatus by being placed into the water facing the cylinder wall. Forced swim tests (5 minutes) occurred the following day. Activity was recorded by digital cameras and analyzed with specialized software (Ethovision XT12).
Statistical significance was set at P<0.05.

For test [2], the system named is FQSE (SEQ ID NO:10)-specific binding sites in the rat cortex. Kind of test: Radioligand analysis with [3H] FQSE on rat cortex membranes. The method, then: After decapitation, the tissues were immediately frozen in liquid nitrogen and stored in a low-temperature refrigerator at −80° C. On the day of the experiment, brain tissue (cortex, about 300 mg) was homogenized in a Teflon-glass Potter homogenizer 1:25 W:V in the buffer (50 mM Tris-HCl, pH 7.4). The homogenate was centrifuged at 40,000 g for 20 min. The obtained precipitate was homogenized in a buffer (50 mM Tris-HCl; pH=7.4) and centrifuged again at 40,000 g for 20 min. A similar procedure was performed again. The precipitate was resuspended in 15 ml of the same buffer and used for the radioligand analysis.
The incubation mixture (final volume 0.5 ml) contained 50 μl […]
At the end of the incubation, the samples were filtered through Ge/C glass fiber filters (Whatman) previously moistened with 0.3% polyethyleneimine for 2 hours at room temperature. Each tube was washed twice with cold buffer, then the filters were washed twice with the same volume of buffer.
The filters were air-dried and transferred to scintillation vials. Filters were poured with 5 ml of toluene-based scintillation liquid (4 g PPO, 0.2 g POPOP per liter of toluene).
To construct the curves of the radioactive ligand's displacement each concentration of the test substance was taken in 3 replications. […]

Test [3] concerns zebrafish (Danio rerio). Kind of test: Open Field test in zebrafish. Format: in vivo. The settings on record: ip; for average distance covered / track length (locomotor activity): diazepam 1.25, 5, 10, fluvoxamine 5, 10, ACZ-10 0.6, BCM-7 5, FQSE 1 and 10, DKTE 1, WDQV 10 mg/kg; for time spent at the surface of the aquarium: fluvoxamine 5 and 10 mg/kg, FQSE 1 mg/kg. The method, then: (§1) The tested substances were injected into the zebrafish intraperitoneally (ip) using an insulin syringe (0.5 ml, 30 g) 10 minutes before the test. The saline solution (0.9% NaCl) was used as a solvent. Anesthesia and immobilization of the animals were achieved by placing them in water at a temperature of 10° C. Control group fish received intraperitoneal injections of an equivalent volume of solvent, also after going through a pre-cooling procedure.
(§2) A base, back, and side walls of the aquarium were made of matte black plastic; the front panel (shorter wall) was made of transparent Plexiglas. The setup for the Light/Dark preference test consisted of three main parts: a launch compartment, a light compartment made of white plastic, and a dark compartment made of black plastic. The bright lighting in these tests was provided by a lamp on a stand (LED lamp PL, 11 W, light flux≈600 Lm, about 500 Lx directly above the water surface), which was attached to the upper part of the aquarium.
(§3) The open field test was performed as described in Maximino et al., 2013. A video recording (background shooting) was started 20-30 seconds before the zebrafish were placed in the test aquarium. The experimental zebrafish was placed in an open field (“OF”) aquarium using a net. The recording was being conducted for five minutes. The test was carried out using EthoVision XT software package (Noldus). The software registered the distance covered by the animal, its speed, the number of visits to the three conventional zones of the aquarium: “bottom,” “center,” and […] (lower, middle, and upper thirds of the aquarium, respectively), the time spent in these zones, and the latency of a visit to the middle and to the surface of the aquarium.

Test [4] concerns zebrafish (Danio rerio). Kind of test: Shoaling behavior test in zebrafish. Format: in vivo. The conditions noted are these: ip; for time spent in the compartment near the shoal: ACZ-10 0.6 mg/kg. The method, then: as §1
A Plexiglas container with a removable partition (shown in FIG. 4) was used as a setup for investigating the shoaling behavior of zebrafish. A shoal of 5 adult Danio rerio specimens was placed into in the small compartment; and the test fish was placed in a large compartment. Diffused lighting in this installation was provided by the usual lighting of the room (about 200 Lx).
(§4) The shoaling behavior test was performed as described in Parker et al., 2014. (Parker et al. (2014) The utility of zebrafish to study the mechanisms by which ethanol affects social behavior and anxiety during early brain development. Prog. Neuro-Psychopharmacology Biol. Psychiatry. 94-100). The video recording began simultaneously with placing the zebrafish in the set-up and recorded for 5 minutes. The videos were processed using RealTimer (OpenScience Ltd., Moskow, Russia). During the processing of the records, the residence time and the number of visits to the three conventional zones of the aquarium wall (near the “shoal” in the middle of the aquarium, and near the opposite side; all three were equal in size) were recorded.

Test [5] has as its system zebrafish (Danio rerio). Kind of test: Light/dark box test in zebrafish. Format: in vivo. The conditions noted are these: ip. The method, then:
as §1, §2
(§5) The light/dark box (LDB) test was performed as described in Maximino et al., 2011. The zebrafish was placed in a light compartment of an LDB using a net, the camera was switched on simultaneously, and the behavior of the zebrafish was recorded for 5 minutes. The video was processed using RealTimer (OpenScience). During the processing of records, the residence time and the number of visits to the light and dark compartments of the test setup were recorded, as well as the latent period of visiting both compartments.

Test [6] has as its system zebrafish (Danio rerio). Kind of test: Zebrafish behavioral tests taken together (open field, light/dark box, shoaling). Format: in vivo. The settings on record: ip; for basic behavioral parameters in open field, light/dark box and shoaling tests: FLPY 1 and 10 mg/kg, DKTE 10 mg/kg, WDQV 1 mg/kg. The method, then:
as §1, §3, §4, §5

The mark [7] stands for this setting: FQSE 10 mg/kg, ACZ-10 0.6 mg/kg.
Setting [8] is: diazepam 1.25 mg/kg, BCM-7 5 mg/kg, DKTE 1 mg/kg, vs control.

In test [1], `CNC1(c2ccccc2Cl)CCCCC1=O` (stereo not shown) [Ketamine] displayed an immobility of 196.4 ± 8.9 s and a mobility of 103.6 ± 8.9 s.
Consider `O=C(O)C1=CCNCC1` [Isoguvacine], for which the “Amount of bound [3H] FQSE after pre-incubation compared to control level” value (“Amount of bound … compared to control level” for short) turned out to be 102.56% in test [2] (10^−4M, 1 hour preincubation, 25 minutes incubation) and 104.33% in test [2] (10^−5M, 1 hour preincubation, 25 minutes incubation). Moreover, in test [2] (Series 5, 25 and 50 minutes at room temperature, read-out: IC50 with respect to [3H]-FQSE binding), the IC50 – broadly, the concentration at which inhibition is half-maximal – was over 100 µM.
Turning to `CC(=O)[C@H]1CC[C@H]2[C@@H]3CC=C4C[C@@H](O)CC[C@]4(C)[C@H]3CC[C@]12C` [Pregnenolone], the “Amount of bound … compared to control level” value in test [2] is 87% and 81%. For the same compound, the IC50 in test [2] (RT, 50 min, read-out: IC50 after different incubation times: 50 min) was 36 ± 0.2 µM; in test [2] (RT, 1 h 30 min, read-out: IC50 after different incubation times: 1 h 30 min) it was 75 ± 0.3 µM; in test [2] (RT, 1 h, read-out: IC50 after different incubation times: 1 h) it was 77 ± 0.2 µM; in test [2] (read-out: IC50 for the [3H]-FQSE binding sites in rat cortex membranes), about 100 µM.
Turning to `CCCCCCN(CCCCCC)C(=O)Cc1c(-c2ccc(F)cc2)[nH]c2ccccc12` [FGIN-1-27], in test [2], the “Amount of bound … compared to control level” value was 102.65% and 102.33%.
`O=C(c1ccc(F)cc1)C1CCN(CCn2c(=O)[nH]c3ccccc3c2=O)CC1` [Ketanserin]: the IC50 in test [2] (25 min incubation at RT, read-out: IC50 with respect to [3H]-FQSE binding) is over 100 µM.
As to `CC(=O)[C@H]1CC[C@H]2[C@@H]3CC[C@H]4C[C@H](O)CC[C@]4(C)[C@H]3CC[C@]12C` [Allopregnanolone], the “Amount of bound … compared to control level” value in test [2] was 100.90% and 103.18%.
In the case of `COCCCC/C(=N\OCCN)c1ccc(C(F)(F)F)cc1` [Fluvoxamine], the “increase of the time spent in the upper part” value in test [3] (FQSE 10 mg/kg, fluvoxamine 5 mg/kg) was “more than 80%”. Further, the “average distance covered / track length (locomotor activity)” value (from here on “average distance covered / track length”) in test [3] is “did not demonstrate any significant effects”. Moreover, the “increase of the time spent under light” value in test [3] (fluvoxamine 5 mg/kg) is on record as “about 6.8 times”; in test [3] (fluvoxamine 10 mg/kg), “about 7.2 times”. In addition, the “time spent at the surface of the aquarium” value in test [3] (ACZ-10 0.6 mg/kg) is “statistically significant increase”.
Regarding “YLGYLEQLLR [ACZ-10, L-tyrosyl-L-leucyl-glycyl-L-tyrosyl-L-leucyl-L-alpha-glutamyl-L-glutaminyl-L-leucyl-L-leucyl-L-arginine]”, in test [3] (setting [7]), the “latent period of leaving the bottom” value is given as “decreased significantly” and the “time spent in the upper part of the aquarium” value is recorded as “did not affect”. In addition, the “average distance covered / track length” value in test [3] was “did not demonstrate any significant effects”. Besides, the “time spent at the surface of the aquarium” value in test [3] (ACZ-10 0.6 mg/kg) is “approximately twofold increase”. The “time spent in the compartment near the shoal” value in test [4] (setting [8]) was “statistically significant decrease”.
WDQV: tetrapeptide W, D, Q, V: the “average distance covered / track length” value in test [3] is “no influence”. In test [5] (FQSE 10 mg/kg, WDQV 10 mg/kg), the “time spent in the dark compartment” value is given as “reduction”. Moreover, the “time spent in the light compartment” value in test [5] (diazepam 5 mg/kg, FQSE 10 mg/kg, WDQV 10 mg/kg) is “increase”. For the same compound, in test [6], the “basic behavioral parameters in open field, light/dark box and shoaling tests” value is “no significant effects”. The “behavior in tests other than the light/dark box” value in test [6] (WDQV 10 mg/kg) is “did not reveal any effect”.
With “YPFPGPI [BCM-7, L-tyrosyl-L-prolyl-L-phenylalanyl-L-prolyl-glycyl-L-prolyl-L-isoleucine]”, in test [3], the “average distance covered / track length” value is listed as “slight increase”. Besides, the “time spent in the compartment near the shoal” value in test [4] (setting [8]) is on record as “decrease”. In addition, the “time spent outside the shoaling compartment” value in test [4] (diazepam 1.25 mg/kg, BCM-7 5 mg/kg) is listed as “did not demonstrate a statistically significant effect”.
Take `Cn1c2ccc(F)cc2c2c(C(=O)N3CCCC3)cn(-c3ccccc3)c(=O)c21` [SL 651498]: the “Amount of bound … compared to control level” value in test [2] was 101.36% and 106.98%.
On the same count and under the same terms, the value for `Cn1ncnc1COc1nn2c(-c3c(F)cccc3F)nnc2cc1C1CCC1` [MK0343] was 98.58% and 104.65%.
Same read-out and setting: under `Oc1noc2c1CCNC2` [Gaboxadol] stands 99.31% and 100.25%; under `C[C@]12CC[C@@H](O)C[C@@H]1CC[C@@H]1[C@@H]2CC[C@]2(C)[C@@H](C(=O)CO)CC[C@@H]12` [THDOC, tetrahydrodeoxycorticosterone; 3α,21-dihydroxy-5α-pregnan-20-one], 100.59% and 103.38%.
With “FLPY: tetrapeptide used as a negative control”, the “basic behavioral parameters in open field, light/dark box and shoaling tests” value in test [6] is on record as “neither of the doses of FLPY (SEQ ID NO:36), induced statistically significant changes”.
For the compound `O=C(N/N=C/c1ccccc1O)c1ccccc1O` [SCS], the “Amount of bound … compared to control level” value in test [2] is 93.93% and 104.58%.
For DKTE: tetrapeptide D, K, T, E, the “latent period of visiting the bottom of the aquarium” value in test [3] (DKTE 1 mg/kg) is on record as “increase”. The “average distance covered / track length” value in test [3] is on record as “did not affect”. Besides, the “latent period of visiting the shoal” value in test [4] (DKTE 1 mg/kg) is “statistically significant increase”. The “time spent in the compartment near the shoal” value in test [4] (setting [8]) is on record as “at the level of tendency”. For the same compound, in test [4] (diazepam 5 mg/kg, FQSE 10 mg/kg, DKTE 1 mg/kg, vs control), the “time spent outside the shoaling compartment (near the wall opposite to the shoal)” value is listed as “statistically significant increase”. Also, the “change in behavior / efficacy in the light/dark box test” value in test [5] (fluvoxamine 5 and 10 mg/kg, DKTE 1 mg/kg) was “no observed efficacy”. The “basic behavioral parameters in open field, light/dark box and shoaling tests” value in test [6] was “did not cause any statistically significant changes”.
On to `CC(C)(C)OC(=O)c1ncn2c1[C@@H]1CCCN1C(=O)c1c(Br)cccc1-2` [Bretanezil], for which the “Amount of bound … compared to control level” value in test [2] is 94.79% and 104.51%.
Still for that read-out and setting: the value for `CC1(C)CC(=O)c2c(SCCO)sc(-c3nccs3)c2C1` [TB21007] was 103.14% and 105.28%.
